What was measured:
[1] = tested on: M1 and M2 macrophage derived from Raw264.7 cell line; assay: mRNA expression of VEGF family, VEGF receptor and PD-L1 by RT-qPCR in Raw264.7 derived macrophages; format: cell-based, murine
Procedure: In this example, experiment was performed to observe if baicalin can induce expression of VEGF family and PD-L1 in M1 and M2 macrophage derived from Raw264.7 cell line (ATCC, USA). M1 macrophage obtained from treating Raw264.7 macrophage with LPS (1 μg/ml, Sigma-Aldrich) for 2 hours, and M0 macrophage (control group) cultured in simple RPMI 1640 (10% FCS) medium, are respectively cultured in RPMI 1640 (10% FCS) medium with either Baicalin (50 μM, Tokyo Chemical Industry, Japan) or […] (10 ng/ml, Cell Guidance System, Cambridge, UK). Collect the cells after 24/48/72 hours of cell culturing. Then observe the mRNA expression level of VEGF family, VEGF receptor and PD-L1 using reverse transcription-real time PCR (RT-qPCR).

murine M2 macrophage = assay: Macrophage surface protein MERTK expression by flow cytometry; format: cell-based; details: versus control, LPS and IL-4 groups, p<0.05, FIG. 15
Procedure: Embodiment 1 is prepared by the steps described above, isolate monocytes from murine bone marrow and use M-CSF to induce differentiation of M2 macrophage, and then use baicalin to induce M2C macrophage polarization. In comparison 1, incubate murine M2 macrophage in RPMI 1640 (10% FCS) containing LPS (lipopolysaccharide, 1 μg/ml, Sigma-Aldrich) for 2 hours. In comparison 2, incubate murine M2 macrophage in medium containing IL-4 ([…] Guidance System, Cambridge, UK) for 24 hours. The control group of M2 macrophage is incubated in RPMI 1640 (10% FCS) without any drugs. The conditions are shown below in chart 2.
In this example, experiment was performed to further test whether M2C treated by baicalin can express MERTK protein. Using flow cytometry to evaluate macrophage surface protein MERTK expression level in embodiment 1, comparison 1, 2, and the control group is cultured in RPMI 1640 (10% FCS) without any drugs. Result was shown in FIG. 14, after fluorescence staining, fluorescence MERTK marker binding was detected in approximately 80% of cells in every group. […] M2C cells treated with baicalin can promote macrophages to express MERTK protein, and the efficacy is greater than LPS and IL-4.

Raw264.7 macrophages = assay: VEGF-A protein in conditioned medium by ELISA; format: cell-based, murine; details: baicalin 50 μM, 48 hours, p<0.05, FIG. 13
Procedure: In this example, experiment was performed to further examine whether […] cells treated with baicalin will express VEGF-A protein. Add LPS (1 μg/ml), baicalin (50 μM) and IL-4 (10 ng/ml) respectively to medium culturing […]; Raw264.7 macrophages (ATCC, USA) and culture for 48 hours. Collect the conditioned medium and quantify VEGF-A protein by EUSA (Mouse VEGF EUSA Kit, Code: EK0541, BosterBio, CA, USA). Control group is cultured in the medium (90% DMEM+10% FBS) without any mentioned drugs. […] […] macrophage treated with baicalin can promote macrophage to secrete VEGF-A protein and the efficacy is greater than IL-4.

[2] = tested on: M2 cell line from murine bone marrow; assay: Efferocytosis of CFSE-marked apoptotic cells by macrophages (flow cytometry PE-MERTK / CFSE); format: cell-based; details: apoptotic cells : M2 3:2, 2 hours, p<0.05, FIG. 21
Procedure: Efficacy evaluation of apoptotic cells efferocytosis in macrophages: method of the evaluation for effectiveness of apoptotic cells efferocytosis in M2 macrophage induced differentiated by different drugs were slightly modified based on previous studies (Li et al., Yancey et al., and Jehle et al; Liu st al and Lilis at al 2008). Detail steps are described below. Use 3 μM CFSE Cell Trace (Thermofisher, USA) to mark RAW264.7 macrophage cell line for 20 minutes under 37° C., then wash with PBS. Culture cells for 24 hours, then use the 1.5 mM H2O2 following the aforementioned steps to induce RAW264.7 macrophage cell to differentiate into apoptotic cells. […] Lastly, use flow cytometry (FACS BD ARIA II, BD Bioscience, USA) to examine fluorescence performance, if both PE-MERTK and CFSE appear positive, the cell will be identified as the M2C macrophages that efferocytosed the aforementioned apoptotic cells.
Results of fluorescence expression of stained apoptotic cells, macrophages and efferocytotic macrophages detected by flow cytometry are shown in FIG. 20. Apoptotic cells induced by H2O2 (1.5 mM) and express FITC fluorescence after FITC-CFSE staining are distributed in P4 region. Differentiated M2 macrophage expresses MERTK are detected by the expressed PE fluorescence after PE-MERTK staining, which is distributed in P5 region. […]

[3] = baicalin 50 μM, 24/48/72 hours, versus groups without baicalin, FIG. 10
[4] = versus IL-4 treated group, same treatment duration, p<0.05, FIG. 11

O=C(O)[C@H]1O[C@@H](Oc2cc3oc(-c4ccccc4)cc(=O)c3c(O)c2O)[C@H](O)[C@@H](O)[C@@H]1O [Baicalin]
VEGF-A mRNA expression level ([1]; baicalin 50 μM, 24/48/72 hours, versus M1, M2 macrophages without baicalin treatment (LPS, control), FIG. 9): higher
VEGFR-1 mRNA expression level [1, 3]: higher
VEGFR-2 mRNA expression level [1, 3]: higher
VEGF-A mRNA expression level [1, 4]: significantly higher
VEGFR1 mRNA expression level [1, 4]: significantly higher
VEGFR2 mRNA expression level [1, 4]: significantly higher
PD-L1 mRNA expression level ([1]; versus M1, M2 macrophages without baicalin treatment, p<0.05, FIG. 12): higher
average MERTK expression level in one single cell (mean fluorescence intensity) (murine M2 macrophage): two times higher
VEGF-A protein detected in conditioned medium (Raw264.7 macrophages): higher than control group and other groups treated with other drugs
mean fluorescence intensity of MERTK of single M2 macrophage ([2]; cells expressing CFSE): significantly higher than other drug treated groups and control group
mean fluorescence intensity of CFSE of single M2 macrophage ([2]; cells expressing MERTK): significantly higher than other drug treated groups and control group
